Measured values taken from patent publication US9320276B2, “N-hetarylmethyl pyrazolylcarboxamides” (BAYER INTELLECTUAL PROPERTY GMBH, priority 2010, dated 2016).

What was measured:
Pyrenophora teres = assay: in vivo preventive test on Pyrenophora teres (barley); conditions: 500 ppm of active ingredient, evaluated 7-9 days after inoculation
In short: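 Young barley plants sprayed with compound in DMF/alkylaryl polyglycol ether emulsion; inoculated with P. teres spores one day later. 48 h at 22 °C, 100% humidity, then greenhouse ~20 °C, ~80% humidity; efficacy scored 7-9 days post-inoculation, 0% = untreated, 100% = no disease.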

[1] = tested on: Blumeria graminis fsp. hordei; assay: in vivo preventive test on Blumeria graminis (barley); conditions: 500 ppm of active ingredient, evaluated 7 days after inoculation
Experimental: (§1) Solvent: 49 parts by weight of N,N-dimethylacetamide Emulsifier: 1 part by weight of alkylaryl polyglycol ether To produce a suitable preparation of active compound, 1 part by weight of active compound or active compound combination is mixed with the stated amounts of solvent and emulsifier, and the concentrate is diluted with water to the desired concentration. To test for preventive activity, young plants are sprayed with the preparation of active compound or active compound combination at the stated rate of application. After the spray coating has been dried, the plants are dusted with spores of Blumeria graminis fsp. hordei. The plants are placed in the greenhouse at a temperature of approximately 18° C. and a relative atmospheric humidity of approximately 80% to promote the development of mildew pustules. The test is evaluated 7 days after the inoculation. 0% means an efficacy which corresponds to that of the untreated control, while an efficacy of 100% means that no disease is observed.

Septoria tritici = assay: in vivo preventive test on Septoria tritici (wheat); conditions: 500 ppm of active ingredient, evaluated 21 days after inoculation
Experimental: as §1, with “sprayed” for “dusted”, “a spore suspension” for “spores”, “Septoria tritici. The plants remain for 48 hours in an incubation cabinet at approximately 20° C. and a relative atmospheric humidity of approximately 100% and afterwards for 60 hours at approximately 15° C. in a translucent incubation cabinet at a relative atmospheric humidity of approximately 100%.” for “Blumeria graminis fsp. hordei.”, “15°” for “18°”, “80%.” for “80% to promote the development of mildew pustules.”, “21” for “7”

Venturia inaequalis = assay: in vivo preventive test on Venturia inaequalis (apple scab); conditions: 100 ppm of active ingredient, evaluated 10 days after inoculation
Experimental: Solvent: 24.5 parts by weight of acetone • 24.5 parts by weight of N,N-dimethylacetamide Emulsifier: 1 part by weight of alkylaryl polyglycol ether To produce a suitable preparation of active compound, 1 part by weight of active compound is mixed with the stated amounts of solvent and emulsifier, and the concentrate is diluted with water to the desired concentration. To test for preventive activity, young plants are sprayed with the preparation of active compound at the stated rate of application. After the spray coating has dried on, the plants are inoculated with an aqueous conidia suspension of the causal agent of apple scab (Venturia inaequalis) and then remain for 1 day in an incubation cabinet at approximately 20° C. and a relative atmospheric humidity of 100%. The plants are then placed in a greenhouse at approximately 21° C. and a relative atmospheric humidity of approximately 90%. The test is evaluated 10 days after the inoculation. 0% means an efficacy which corresponds to that of the untreated control, while an efficacy of 100% means that no disease is observed.

Sphaerotheca fuliginea = assay: in vivo preventive test on Sphaerotheca fuliginea (cucumber); conditions: 500 ppm of active ingredient, evaluated 7 days after inoculation
Experimental: Solvent: 49 parts by weight of N,N-dimethylformamide Emulsifier: 1 part by weight of Alkylarylpolyglycolether To produce a suitable preparation of active compound, 1 part by weight of active compound is mixed with the stated amounts of solvent and emulsifier, and the concentrate is diluted with water to the desired concentration. To test for preventive activity, young plants are sprayed with the preparation of active compound at the stated rate of application. One day after this treatment, the plants are inoculated with an aqueous spore suspension of Sphaerotheca fuliginea. Then the plants are placed in a greenhouse at approximately 23° C. and a relative atmospheric humidity of approximately 70%. The test is evaluated 7 days after the inoculation. 0% means an efficacy which corresponds to that of the untreated control, while an efficacy of 100% means that no disease is observed.

[2] = tested on: Fusarium nivale (var. majus); assay: in vivo curative test on Fusarium nivale (wheat); conditions: 500 ppm of active ingredient, evaluated 5 days after inoculation
Experimental: Solvent: 49 parts by weight of N,N-dimethylacetamide Emulsifier: 1 part by weight of alkylaryl polyglycol ether To produce a suitable preparation of active compound, 1 part by weight of active compound or active compound combination is mixed with the stated amounts of solvent and emulsifier, and the concentrate is diluted with water to the desired concentration. To test for curative activity, young plants are slightly injured by using a sandblast and afterwards they are sprayed with a conidia suspension of Fusarium nivale (var. majus) and placed for 24 hours in a greenhouse under a translucent incubation cabinet at a temperature of approximately 10° C. and a relative atmospheric humidity of approximately 100% and are subsequently sprayed with the preparation of active compound at the stated rate of application. After the spray coating has been dried, the plants remain in the greenhouse under translucent incubation cloches at a temperature of approximately 10° C. and a relative atmospheric humidity of approximately 100%. The test is evaluated 5 days after the inoculation. 0% means an efficacy which corresponds to that of the untreated control, while an efficacy of 100% means that no disease is observed.

Leptosphaeria nodorum = assay: in vivo preventive test on Leptosphaeria nodorum (wheat); conditions: 500 ppm of active ingredient, evaluated 7-9 days after inoculation
Experimental: Solvent: 49 parts by weight of N,N-dimethylacetamide Emulsifier: 1 part by weight of alkylaryl polyglycol ether To produce a suitable preparation of active compound, 1 part by weight of active compound is mixed with the stated amounts of solvent and emulsifier, and the concentrate is diluted with water to the desired concentration. To test for preventive activity, young plants are sprayed with a preparation of active compound at the stated rate of application. One day after this treatment, the plants are inoculated with an aqueous spore suspension of Leptosphaeria nodorum. The plants remain for 48 hours in an incubation cabinet at 22° C. and a relative atmospheric humidity of 100%. Then the plants are placed in a greenhouse at a temperature of approximately 22° C. and a relative atmospheric humidity of approximately 90%. The test is evaluated 7-9 days after the inoculation. 0% means an efficacy which corresponds to that of the untreated control, while an efficacy of 100% means that no disease is observed.

Alternaria solani = assay: in vivo preventive test on Alternaria solani (tomato); conditions: 500 ppm of active ingredient, evaluated 7 days after inoculation
Experimental: Solvent: 49 parts by weight of N,N-dimethylformamide Emulsifier: 1 part by weight of Alkylarylpolyglycolether To produce a suitable preparation of active compound, 1 part by weight of active compound is mixed with the stated amounts of solvent and emulsifier, and the concentrate is diluted with water to the desired concentration. To test for preventive activity, young plants are sprayed with the preparation of active compound at the stated rate of application. One day after this treatment, the plants are inoculated with an aqueous spore suspension of Alternaria solani. The plants remain for one day in an incubation cabinet at approximately 22° C. and a relative atmospheric humidity of 100%. Then the plants are placed in an incubation cabinet at approximately 20° C. and a relative atmospheric humidity of 96%. The test is evaluated 7 days after the inoculation. 0% means an efficacy which corresponds to that of the untreated control while an efficacy of 100% means that no disease is observed.

[3] = logP by HPLC on reversed-phase column (EEC Directive 79/831 Annex V.A8); format: physicochemical; conditions: HPLC on reversed-phase column (C 18), 40° C., 0.1% aqueous formic acid and acetonitrile, linear gradient 10% to 90% acetonitrile
In short: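 Reversed-phase C18 HPLC at 40° C with 0.1% aqueous formic acid/acetonitrile, linear gradient 10% to 90% acetonitrile. LogP obtained from retention time by linear interpolation between successive unbranched alkan-2-ones (3 to 16 carbons) of known logP. Lambda-max taken from UV spectra at 200-400 nm at chromatographic peak maxima.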

Puccinia triticina = assay: in vivo protective test on Puccinia triticina (wheat); conditions: 500 ppm of active ingredient, preventive, evaluated 8 days after inoculation
Experimental: Solvent: 49 parts by weight of N,N-dimethylacetamide Emulsifier: 1 part by weight of alkylaryl polyglycol ether To produce a suitable preparation of active compound, 1 part by weight of active compound or active compound combination is mixed with the stated amounts of solvent and emulsifier, and the concentrate is diluted with water to the desired concentration. To test for preventive activity, young plants are sprayed with the preparation of active compound or active compound combination at the stated rate of application. After the spray coating has been dried, the plants are sprayed with a spore suspension of Puccinia triticina. The plants remain for 48 hours in an incubation cabinet at approximately 20° C. and a relative atmospheric humidity of approximately 100%. The plants are placed in the greenhouse at a temperature of approximately 20° C. and a relative atmospheric humidity of approximately 80%. The test is evaluated 8 days after the inoculation. 0% means an efficacy which corresponds to that of the untreated control, while an efficacy of 100% means that no disease is observed.

CC(c1csc2ccccc12)N(C(=O)c1c(C(F)F)nn(C)c1F)C1CC1 (racemic) [Example 85]
Efficacy (Pyrenophora teres): 100%
Efficacy [1]: 100%
Efficacy (Septoria tritici): 90%
Efficacy (Venturia inaequalis): 100%
Efficacy (Sphaerotheca fuliginea): 94%
Efficacy [2]: 100%
Efficacy (Leptosphaeria nodorum): 100%
Efficacy (Alternaria solani): 80%
logP [3]: 3.60

Cc1ccsc1CN(C(=O)c1c(C(F)F)nn(C)c1F)C1CC1 [Example 40]
Efficacy (Pyrenophora teres): 100%
Efficacy [1]: 100%
Efficacy (Septoria tritici): 100%
Efficacy (Puccinia triticina): 71%
Efficacy (Sphaerotheca fuliginea): 90%
Efficacy [2]: 92%
Efficacy (Alternaria solani): 95%
logP [3]: 2.88

Cn1nc(C(F)F)c(C(=O)N(Cc2csc3ccccc23)C2CC2)c1F [Example 90]
Efficacy (Pyrenophora teres): 100%
Efficacy [1]: 100%
Efficacy (Septoria tritici): 100%
Efficacy (Puccinia triticina): 88%
Efficacy [2]: 100%
Efficacy (Leptosphaeria nodorum): 100%
Efficacy (Alternaria solani): 95%
logP [3]: 3.27

Cn1nc(C(F)F)c(C(=O)N(Cc2cccc3ccsc23)C2CC2)c1F [Example 93]
Efficacy (Pyrenophora teres): 100%
Efficacy [1]: 94%
Efficacy (Septoria tritici): 100%
Efficacy (Puccinia triticina): 100%
Efficacy [2]: 71%
Efficacy (Alternaria solani): 100%
logP [3]: 3.19

Cc1c(CN(C(=O)c2c(C(F)F)nn(C)c2F)C2CC2)sc2ccccc12 [Example 122]
Efficacy (Pyrenophora teres): 100%
Efficacy (Septoria tritici): 100%
Efficacy (Puccinia triticina): 100%
Efficacy [2]: 93%
Efficacy (Leptosphaeria nodorum): 100%
Efficacy (Alternaria solani): 95%
logP [3]: 3.64

Cc1nn(-c2ccccc2)nc1CN(C(=S)c1c(C(F)F)nn(C)c1F)C1CC1 [Example 132]
Efficacy (Pyrenophora teres): 100%
Efficacy (Venturia inaequalis): 98%
Efficacy (Sphaerotheca fuliginea): 100%
Efficacy (Alternaria solani): 90%
logP [3]: 4.04

Cn1nc(C(F)F)c(C(=O)N(Cc2cc3ccccc3n2-c2ccccc2)C2CC2)c1F [Example 155]
Efficacy (Pyrenophora teres): 100%
Efficacy [1]: 70%
Efficacy (Septoria tritici): 100%
Efficacy (Puccinia triticina): 75%
Efficacy [2]: 100%
Efficacy (Leptosphaeria nodorum): 80%
Efficacy (Alternaria solani): 95%
logP [3]: 3.96
